Experimental data as given in US7589097B2, “Triazol[4,5-d] pyramidine derivatives and their use as purinergic receptor antagonists” (Vernalis Research Limited, priority 2001, dated 2009).

Experiments:
cataleptic responses = conditions: cited from earlier work
[1] = molecular target: human adenosine A2A receptors (Homo sapiens, UniProt P29274); experiment: Binding affinities at hA2A receptors, displacement of [3H]-CGS 21680
Text: Adenosine Receptor Binding Binding Affinities at hA2A Receptors

Parkinsonian patients = conditions: cited from earlier work

Sequence of human adenosine A2A receptors (P29274 whole entry): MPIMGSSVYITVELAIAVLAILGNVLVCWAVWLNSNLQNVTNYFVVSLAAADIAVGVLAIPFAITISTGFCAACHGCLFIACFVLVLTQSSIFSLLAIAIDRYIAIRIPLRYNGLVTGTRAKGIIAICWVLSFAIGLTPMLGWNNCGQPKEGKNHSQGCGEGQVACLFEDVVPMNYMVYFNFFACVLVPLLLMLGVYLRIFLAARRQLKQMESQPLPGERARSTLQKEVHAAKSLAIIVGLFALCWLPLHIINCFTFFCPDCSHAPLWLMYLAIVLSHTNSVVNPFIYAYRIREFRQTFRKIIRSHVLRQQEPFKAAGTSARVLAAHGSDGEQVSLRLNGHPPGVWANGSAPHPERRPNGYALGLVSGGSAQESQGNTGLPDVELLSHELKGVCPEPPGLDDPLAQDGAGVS

| melting point | Ki [1] | Structure (SMILES) | further results |
| --- | --- | --- | --- |
|  |  | CCCn1c(=O)c2c(nc(/C=C/c3ccc(OC)c(OC)c3)n2C)n(CCC)c1=O [KF 17837, (E)-8-(3,4-dimethoxystyryl)-1,3-dipropyl-7-methylxanthine] | anticataleptic effects of a subthreshold dose of L-DOPA plus benserazide (cataleptic responses; in vivo): potentiated; catalepsy induced by haloperidol and reserpine (cataleptic responses; in vivo): reduced; cataleptic responses induced by intracerebroventricular CGS 21680 (cataleptic responses; oral administration): significantly ameliorated |
| 274.2 to 274.3 °C | 2 nM | COc1cc(F)c(Cn2nnc3c(-c4ccco4)nc(N)nc32)c(F)c1 [Example 156, 3-(2,6-Difluoro-4-methoxybenzyl)-7-(2-furyl)-3H-[1,2,3]triazolol[4,5-d]pyrimidine-5-amine] |  |
| 276.4 to 277.4 °C | 2 nM | Nc1nc(-c2ccco2)c2nnn(Cc3cccc4cccnc34)c2n1 [Example 107, 7-(2-furyl)-3-(8-quinolinylmethyl)-3H-[1,2,3]triazolo[4,5-d]pyrimidine-5-amine] |  |
|  |  | Cn1c(=O)c2[nH]cnc2n(C)c1=O [Theophylline, theophylline] | mean objective disability scores (Parkinsonian patients; 15 Parkinsonian patients, up to 12 weeks, 150 mg/day oral): significant improvements; patients reporting moderate or marked subjective improvement (Parkinsonian patients; of 15 Parkinsonian patients, up to 12 weeks, 150 mg/day oral): 11; serum theophylline levels (Parkinsonian patients; slow release oral preparation 150 mg/day, after one week, Parkinsonian patients): 4.44 mg/L |
| 213.8 to 213.9 °C | 2 nM | Nc1nc(-c2ccco2)c2nnn(Cc3c(F)cccc3F)c2n1 [Example 41, 3-(2,6-difluorobenzyl)-7-(2-furyl)-3H-[1,2,3]triazolo[4,5-d]pyrimidine-5-amine] |  |
| > 250 °C (dec.) | 1 nM | Nc1nc(-c2ccco2)c2nnn(Cc3ccc4c(c3)OCO4)c2n1 [Example 209, 7-(2-furyl)-3-(3,4-methylenedioxybenzyl)-3H-[1,2,3]triazolo[4,5-d]pyrimidine-5-amine] |  |
| 211.4 to 211.6 °C | 1 nM | Nc1nc(-c2ccco2)c2nnn(Cc3ccc(Cl)cc3N)c2n1 [Example 120, 3-(2-amino-4-chlorobenzyl)-7-(2-furyl)-3H-[1,2,3]triazolo[4,5-d]pyrimidine-5-amine] |  |
